What is called IC50 is the point on the concentration scale where inhibition reaches its midpoint.

For one experiment, the target named is T1, KRAS (WT) (Homo sapiens, UniProt P01116).
T1 construct: Biotinylated KRAS protein amino acids 1-169 (produced at Erasca); made in house
The experiment can be described thus: In-vitro RAS-RAF binding assay (RRB), HTRF/FRET. It counts as biochemical. Conditions: Table 2, average of multiple runs of each compound; read-out: Inhibition of RAS-RAF Binding (in-vitro) KRAS (WT) IC50. How it is done: (§1) Biotinylated KRAS protein amino acids 1-169 (produced at […]) is labeled with streptavidin-terbium (lanthanide cryptate donor fluorophore) in assay buffer (50 mM HEPES, pH 7.5, 100 mM NaCl, 1 mM MgCl2, 1 mM DTT) at a final concentration of 30 nM. In a separate reaction mixture, 30 nM cRAF (RBD) (Abcam, Cambridge MA) is labeled with anti-GST d2 (acceptor fluorophore). Labeling reactions are incubated for 1 hour at room temperature. […] Following the compound incubation, SOS1 catalytic domain (produced at […]) and GTPgS are added to the reaction to initiate nucleotide exchange (60 minutes exchange reaction). Once in the GTP state KRAS will bind to cRAF. No binding will occur if KRAS remains in the GDP state. Compounds may block nucleotide exchange or may create a steric obstruction to cRAF-KRAS interaction by binding to the RAS effector site. […] A portion of this mixture is transferred to a white 384-well plate (20 uL per well in duplicate) and read on an HTRF compatible plate reader (ClarioSTAR). Fluorescent resonance energy transfer (FRET) is measured at equilibrium. FRET signal will be high if KRAS-cRAF binding occurs. FRET signal will be low if KRAS-cRAF binding is inhibited by the test compound. Table 2 represents the average of multiple runs of each compound.
(In general: Time-resolved FRET reads energy transfer from a long-lived donor to a nearby acceptor.)

The target in the next experiment is KRAS G12D (Homo sapiens, UniProt P01116, G12D). The experiment can be described thus: In-vitro RAS-RAF binding assay (RRB), HTRF/FRET. It counts as biochemical. Set-up: Biotinylated KRAS protein amino acids 1-169 (produced at Erasca); made in house. The settings on record: Table 2, average of multiple runs of each compound; read-out: Inhibition of RAS-RAF Binding (in-vitro) KRAS (G12D) IC50. How it is done: as §1
KRAS G12D, sequence (P01116 1-169 isoform P01116-2 G12D): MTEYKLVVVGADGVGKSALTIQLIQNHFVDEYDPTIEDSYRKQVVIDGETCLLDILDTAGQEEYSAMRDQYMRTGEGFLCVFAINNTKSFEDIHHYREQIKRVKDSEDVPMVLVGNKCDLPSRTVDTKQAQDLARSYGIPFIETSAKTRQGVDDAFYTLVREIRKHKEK

T1 sequence (P01116 1-169 isoform P01116-2): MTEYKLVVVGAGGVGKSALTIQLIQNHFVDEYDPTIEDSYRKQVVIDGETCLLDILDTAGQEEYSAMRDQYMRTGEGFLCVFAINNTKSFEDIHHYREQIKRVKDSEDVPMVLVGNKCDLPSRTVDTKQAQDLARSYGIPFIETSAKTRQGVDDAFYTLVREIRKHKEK

Take `C#Cc1c(F)ccc2cc(O)cc(-c3ncc4c(N5CC6CCC(C5)N6)nc(OC[C@@H]5CCCN5CCCOCCC(=O)N[C@H](C(=O)N5C[C@H](O)C[C@H]5C(=O)N[C@@H](C)c5ccc(-c6c(F)cccc6F)cn5)C(C)(C)C)nc4c3F)c12` [Example 30, (2S,4R)-1-((2S)-2-(3-(3-((2S)-2-(((4-(3,8-diazabicyclo[3.2.1]octan-3-yl)-7-(8-ethynyl-7-fluoro-3-hydroxynaphthalen-1-yl)-8-fluoropyrido[4,3-d]pyrimidin-2-yl)oxy)methyl)pyrrolidin-1-yl)propoxy)propanamido)-3,3-dimethylbutanoyl)-N—((S)-1-(5-(2,6-difluorophenyl)pyridin-2-yl)ethyl)-4-hydroxypyrrolidine-2-carboxamide]: the IC50 on KRAS (WT) worked out at 0.0223 µM; at KRAS G12D, 0.00759 µM.
Turning to `Cc1ncsc1-c1ccc([C@H](C)NC(=O)[C@@H]2C[C@@H](O)CN2C(=O)[C@@H](NC(=O)CCCCN2CCC[C@H]2COc2nc(N3CC4CCC(C3)N4)c3cc(Cl)c(-c4ccc(F)c5sc(N)c(C#N)c45)c(F)c3n2)C(C)(C)C)cc1` [Example 84, (2S,4R)-1-((2S)-2-(5-((2S)-2-(((7-(2-amino-3-cyano-7-fluorobenzo[b]thiophen-4-yl)-4-(3,8-diazabicyclo[3.2.1]octan-3-yl)-6-chloro-8-fluoroquinazolin-2-yl)oxy)methyl)pyrrolidin-1-yl)pentanamido)-3,3-dimethylbutanoyl)-4-hydroxy-N-((S)-1-(4-(4-methylthiazol-5-yl)phenyl)ethyl)pyrrolidine-2-carboxamide], the half-inhibitory concentration (IC50) on KRAS (WT) was found to be 0.069 µM; at KRAS G12D, 0.0128 µM.
Consider `Cc1ncsc1-c1ccc([C@H](CO)NC(=O)[C@@H]2C[C@@H](O)CN2C(=O)[C@@H](NC(=O)CCCCN2CCC[C@H]2COc2nc(N3CC4CCC(C3)N4)c3cc(Cl)c(-c4ccc(F)c5sc(N)c(C#N)c45)c(F)c3n2)C(C)(C)C)cc1` [Example 88, (2S,4R)-1-((2S)-2-(5-((2S)-2-(((7-(2-amino-3-cyano-7-fluorobenzo[b]thiophen-4-yl)-4-(3,8-diazabicyclo[3.2.1]octan-3-yl)-6-chloro-8-fluoroquinazolin-2-yl)oxy)methyl)pyrrolidin-1-yl)pentanamido)-3,3-dimethylbutanoyl)-4-hydroxy-N-((R)-2-hydroxy-1-(4-(4-methylthiazol-5-yl)phenyl)ethyl)pyrrolidine-2-carboxamide], for which the figures for the IC50 at KRAS (WT) and on KRAS G12D were 0.0633 µM and 0.0163 µM, respectively.
For the compound `C#Cc1c(F)ccc2cc(O)cc(-c3ncc4c(N5CC6CCC(C5)N6)nc(OC[C@@H]5CCCN5CCCOCCC(=O)N[C@H](C(=O)N5C[C@H](O)C[C@H]5C(=O)N[C@@H](C)c5ccc(-c6c(C)cccc6C)cc5)C(C)(C)C)nc4c3F)c12` [Example 41, (2S,4R)-1-((2S)-2-(3-(3-((2S)-2-(((4-(3,8-diazabicyclo[3.2.1]octan-3-yl)-7-(8-ethynyl-7-fluoro-3-hydroxynaphthalen-1-yl)-8-fluoropyrido[4,3-d]pyrimidin-2-yl)oxy)methyl)pyrrolidin-1-yl)propoxy)propanamido)-3,3-dimethylbutanoyl)-N-((S)-1-(2′,6′-dimethyl-[1,1′-biphenyl]-4-yl)ethyl)-4-hydroxypyrrolidine-2-carboxamide], the IC50 was determined as 0.0534 µM on KRAS (WT) and 0.0094 µM on KRAS G12D.
The like results for `C[C@H](NC(=O)[C@@H]1C[C@@H](O)CN1C(=O)[C@@H](NC(=O)CCCCN1CCC[C@H]1COc1nc(N2CC3CCC(C2)N3)c2cnc(-c3cc(O)cc4cccc(F)c34)c(F)c2n1)C(C)(C)C)c1ccc(-c2cccc(F)c2)cc1` [Example 86, (2S,4R)-1-((2S)-2-(5-((2S)-2-(((4-(3,8-diazabicyclo[3.2.1]octan-3-yl)-8-fluoro-7-(8-fluoro-3-hydroxynaphthalen-1-yl)pyrido[4,3-d]pyrimidin-2-yl)oxy)methyl)pyrrolidin-1-yl)pentanamido)-3,3-dimethylbutanoyl)-N-((S)-1-(3′-fluoro-[1,1′-biphenyl]-4-yl)ethyl)-4-hydroxypyrrolidine-2-carboxamide] were, in that order, 0.568 µM and 0.00905 µM.
The like results for `C#Cc1c(F)ccc2cc(O)cc(-c3ncc4c(N5CC6CCC(C5)N6)nc(OCCN5CCC6(CC5)CN(c5cc([C@H](C(=O)N7C[C@H](O)C[C@H]7C(=O)N[C@@H](C)c7ccc(-c8c(F)cc(F)cc8F)cc7)C(C)C)on5)C6)nc4c3F)c12` [Example 36, (2S,4R)-1-((2R)-2-(3-(7-(2-((4-(3,8-diazabicyclo[3.2.1]octan-3-yl)-7-(8-ethynyl-7-fluoro-3-hydroxynaphthalen-1-yl)-8-fluoropyrido[4,3-d]pyrimidin-2-yl)oxy)ethyl)-2,7-diazaspiro[3.5]nonan-2-yl)isoxazol-5-yl)-3-methylbutanoyl)-4-hydroxy-N—((S)-1-(2′,4′,6′-trifluoro-[1,1′-biphenyl]-4-yl)ethyl)pyrrolidine-2-carboxamide] were, in that order, 1.07 µM and 0.00985 µM.
On the same counts, the results for `C#Cc1c(F)ccc2cc(O)cc(-c3ncc4c(N5CC6CCC(C5)N6)nc(OC[C@@H]5CCCN5CCCOCCC(=O)N[C@H](C(=O)N5C[C@H](O)C[C@H]5C(=O)N[C@@H](C)c5ccc(-c6ccc(F)c(F)c6F)cc5)C(C)(C)C)nc4c3F)c12` [Example 55, (2S,4R)-1-((2S)-2-(3-(3-((2S)-2-(((4-(3,8-diazabicyclo[3.2.1]octan-3-yl)-7-(8-ethynyl-7-fluoro-3-hydroxynaphthalen-1-yl)-8-fluoropyrido[4,3-d]pyrimidin-2-yl)oxy)methyl)pyrrolidin-1-yl)propoxy)propanamido)-3,3-dimethylbutanoyl)-4-hydroxy-N-((S)-1-(2′,3′,4′-trifluoro-[1,1′-biphenyl]-4-yl)ethyl)pyrrolidine-2-carboxamide] are 0.067 µM and 0.00979 µM.
`C[C@H](NC(=O)[C@@H]1C[C@@H](O)CN1C(=O)[C@@H](NC(=O)CCOCCCN1CCC[C@H]1COc1nc(N2CC3CCC(C2)N3)c2cc(C(F)(F)F)c(-c3ccc(F)c4sc(N)c(C#N)c34)cc2n1)C(C)(C)C)c1ccc(-c2c(F)cccc2F)cc1` [Example 21, (2S,4R)-1-((2S)-2-(3-(3-((2S)-2-(((7-(2-amino-3-cyano-7-fluorobenzo [b]thiophen-4-yl)-4-(3,8-diazabicyclo[3.2.1]octan-3-yl)-6-(trifluoromethyl)quinazolin-2-yl)oxy)methyl)pyrrolidin-1-yl)propoxy)propanamido)-3,3-dimethylbutanoyl)-N—((S)-1-(2′,6′-difluoro-[1,1′-biphenyl]-4-yl)ethyl)-4-hydroxypyrrolidine-2-carboxamide]: the figures for the half-maximal inhibitory concentration (IC50) on KRAS (WT) and at KRAS G12D were 0.162 µM and 0.0144 µM, respectively.
Turning to `C#Cc1c(F)ccc2cc(O)cc(-c3ncc4c(N5CC6CCC(C5)N6)nc(OC[C@@H]5CCCN5CCCOCCC(=O)N[C@H](C(=O)N5C[C@H](O)C[C@H]5C(=O)N[C@@H](C)c5ccc(-c6c(F)ccc(F)c6F)cc5)C(C)(C)C)nc4c3F)c12` [Example 44, (2S,4R)-1-((2S)-2-(3-(3-((2S)-2-(((4-(3,8-diazabicyclo[3.2.1]octan-3-yl)-7-(8-ethynyl-7-fluoro-3-hydroxynaphthalen-1-yl)-8-fluoropyrido[4,3-d]pyrimidin-2-yl)oxy)methyl)pyrrolidin-1-yl)propoxy)propanamido)-3,3-dimethylbutanoyl)-4-hydroxy-N-((S)-1-(2′,3′,6′-trifluoro-[1,1′-biphenyl]-4-yl)ethyl)pyrrolidine-2-carboxamide], the IC50 at KRAS (WT) is 0.0343 µM; on KRAS G12D it was 0.00892 µM.

These data come from patent publication US20240293558A1, “KRAS INHIBITOR CONJUGATES” (Erasca, Inc., priority 2021, published 2024).
